Reference: patent US20110033516A1, “METHODS AND COMPOSITIONS FOR BONE HEALING BY PERIOSTIN” (Medical University of South Carolina, priority 2009, published 2011)
Entries after “also recorded” stand apart in the source; their conditions may differ.

B1: periostin: Full length recombinant mouse periostin (a.k.a. OSF-2) purchased from R&D systems; secreted 90 kDa matricellular protein (protein, UniProt Q62009 1-838, looked up)
chain: MVPLLPLYALLLLFLCDINPANANSYYDKVLAHSRIRGRDQGPNVCALQQILGTKKKYFSSCKNWYQGAICGKKTTVLYECCPGYMRMEGMKGCPAVMPIDHVYGTLGIVGATTTQHYSDVSKLREEIEGKGSYTYFAPSNEAWENLDSDIRRGLENNVNVELLNALHSHMVNKRMLTKDLKHGMVIPSMYNNLGLFINHYPNGVVTVNCARVIHGNQIATNGVVHVIDRVLTQIGTSIQDFLEAEDDLSSFRAAAITSDLLESLGRDGHFTLFAPTNEAFEKLPRGVLERIMGDKVASEALMKYHILNTLQCSEAITGGAVFETMEGNTIEIGCEGDSISINGIKMVNKKDIVTKNGVIHLIDEVLIPDSAKQVIELAGKQQTTFTDLVAQLGLASSLKPDGEYTLLAPVNNAFSDDTLSMDQRLLKLILQNHILKVKVGLSDLYNGQILETIGGKQLRVFVYRTAICIENSCMVRGSKQGRNGAIHIFREIIQPAEKSLHDKLRQDKRFSIFLSLLEAADLKDLLTQPGDWTLFAPTNDAFKGMTSEERELLIGDKNALQNIILYHLTPGVYIGKGFEPGVTNILKTTQGSKIYLKGVNETLLVNELKSKESDIMTTNGVIHVVDKLLYPADIPVGNDQLLELLNKLIKYIQIKFVRGSTFKEIPMTVYTTKIITKVVEPKIKVIQGSLQPIIKTEGPAMTKIQIEGDPDFRLIKEGETVTEVIHGEPVIKKYTKIIDGVPVEITEKQTREERIITGPEIKYTRISTGGGETGETLQKFLQKEVSKVTKFIEGGDGHLFEDEEIKRLLQGDTPAKKIPANKRVQGPRRRSREGRSQ
modifications: full-length
notes: Full length recombinant mouse periostin (a.k.a. OSF-2) purchased from R&D systems; secreted 90 kDa matricellular protein
B2: TGFβ3: exogenous factor (transforming growth factor) tested in the 3D collagen gel migration assay (protein, UniProt P10600 301-412, looked up)
Transforming growth factor …: ALDTNYCFRNLEENCCVRPLYIDFRQDLGWKWVHEPKGYYANFCSGPCPYLRSADTTHSTVLGLYNTLNPEASASPCCVPQDLEPLTILYYVGRTPKVEQLSNMVVKSCKCS

Experiments:
ROS cell line = experiment: Cell adhesion assay, ROS cell line; format: cell-based, rat; conditions: assayed in triplicate, 1% BSA negative control
Method: FIGS. 16A-B Cell adhesion assays. (A) Each of the 55 peptides (20 mers) of periostin was assayed in triplicate by a cell adhesion assay using the ROS cell line. Collagen I and poly-L-lysine were used as positive controls, whereas 1% BSA coated wells were negative controls for non-specific binding. […] These subtle differences may be attributed to different integrin profiles of the two cell types.
The 55 peptides in Table 1 have been studied in a cell adhesion assay using the ROS cell line.
These assays will be performed as described. Briefly, titrated amounts of purified matrix protein (or peptides or fragments) ranging from 10 ng/ml to 100 μg/ml will be used to coat the wells of a 96-well dish. Poly-L-lysine (1.5 μg/ml) and 1% BSA will be used as positive and negative controls for adhesion, respectively. The wells are blocked with 1% BSA to coat any of the charged plastic surface not coated by the substrates. Finally the cells are allowed to adhere to the substrates at 37° C. for 1-2 hours depending on cell type. The cells are then gently washed to remove those that are not adherent and retain those that are adherent. Then the cells remaining are exposed to 4% PFA to fix them and they are subsequently stained with 0.25% crystal violet for 30 min. Plates are washed and air-dried. At this point the cells can be visualized and images digitally captured. The amount of stain on the cells is solubilized by 2% sodium deoxycholate for 10 min. and absorbance is measured at 540 nm wavelength. This gives quantitative data directly related to the number of adherent cells. Another assessment can be done by digitally capturing the cells in each well and analyzing their spreading by morphometric analysis.

[1] = test system: fibula osteotomy in the periostin null mouse; experiment: Fibula osteotomy model of bone fracture healing, X-ray analysis; format: in vivo; conditions: three weeks after fibula osteotomy, hydrogel delivery at the break point
Method: FIGS. 8A-C Periostin KO mice have defects in bone regeneration. X-ray analyses of bone healing three weeks after fibula osteotomies. […] (B,C) Fibula osteotomies were performed in the periostin null background and analyzed by X-ray three weeks later. In the absence of periostin there is no apparent callus formed and no fibula fusion (C).
To examine the role of periostin as a mediator of bone healing following injury, a novel in vivo murine fibula osteotomy model was developed (FIGS. 6A-B). The generation of this model system in the mouse has significant advantages over the more standard tibia and femur bone break models. Currently, the main disadvantage of the tibia and femur models is their necessity for an intermedullary stabilizer (i.e., metal rods) due to these bones being weight bearing. These rods make various analyses such microCT, MTS and histological examination either exceedingly difficult or totally impossible. Because the fibula is a non-weight bearing bone, intermedullary stabilization is not required. As such, analyses such as microCT, MTS and histology are more easily and reproducibly performed in the fibula osteotomy model. […]

primary fibroblasts = experiment: 3D collagen gel migration assay with hanging drop aggregates; format: cell-based; conditions: aggregates of 50,000 cells/20 μl on collagen I hydrogels (1.5 mg/ml), exogenous factors
From the text: FIG. 11 Periostin promotes migration of primary fibroblasts in 3D collagen gel assays. […] Pictures above the graph lines show representative images of the stimulated cultures with the cell migratory boundaries outlined.
The 3-D migration and invasion assay will use the same cells but aggregate them using a hanging drop method overnight. […] The number of cells that have migrated out from the aggregate and the distance migrated on the top of the gel are the first order parameters of migration.

[2] = test system: Mesenchyme from periostin null mice; experiment: Hanging drop culture of periostin null mesenchyme, collagen expression by immunoblotting; format: cell-based, mouse; conditions: purified periostin protein 10 μg/ml in culture medium, 7 days
Method: FIGS. 3A-B Periostin regulates collagen synthesis. Mesenchyme from periostin null mice was placed in hanging drop cultures and incubated with either purified periostin protein (10 μg/ml) or PBS. Mesenchyme from wild-type mice was used as control tissue. After 7 days, tissues were harvested and analyzed for periostin and collagen expression by immunoblotting. […] Actin is used for protein normalization. (B) Graphical representation of Western analyses presented in panel A obtained from densitometric analyses using NIH image software. Values obtained were compared against wild-type values (baseline) and represented as relative percent change. * denotes p<0.05.
Studies were carried out to examine the affect of periostin on fibroblast differentiation. Through these studies, it was ascertained that periostin was a crucial regulator of collagen I synthesis and maturation (fibrillogenesis) and promoted fibroblast differentiation (FIGS. 3A-B). […] Within the bone, expression of these matrix components was seen primarily in the periosteal cells. To ascertain the functional significance of periostin on bone growth, gene targeted mice were generated. These mice are viable and able to reproduce. However, significant defects have been observed in the material properties of various connective tissues. […]

rat osteoblast cells = experiment: Standard wounding / scratch migration assay; format: cell-based; conditions: dishes coated with plastic, collagen, or collagen plus titrating amounts of periostin; BMP-2 titrated; up to 48 hours
Method: Tissue culture dishes were coated with either collagen, or collagen with titrating amounts of periostin. Cells were plated and allowed to adhere for 24 hours. A standard “wounding” or “scratch assay” was performed and measurements of cell migration into the scratch area were obtained.
The ability of periostin to promote migration of osteoblast cells in culture was ascertained utilizing a standard “wounding” assay. For this, a monolayer of rat osteoblast cells was plated on either plastic, collagen or collagen plus titrating amounts of periostin. A small scratch was made (with a P200 tip) through the middle of the monolayer and the cells were allowed to migrate into the “wounded” area for up to 48 hours.

fibroblasts = experiment: Collagen deposition by fibroblasts after periostin exposure; format: cell-based; conditions: following periostin exposure/incubation

Molecule	cell adhesion (binding) to peptide (ROS cell line)	other results
DQRLLKLILQNHILKVKVGL (listed as Mus musculus) [Peptide 28, murine periostin peptide]	significant binding	
HGMVIPSMYNNLGLFINHYP (listed as Mus musculus) [Peptide 12, murine periostin peptide]	significant binding	
HSHMVNKRMLTKDLKHGMVI (listed as Mus musculus) [Peptide 11, murine periostin peptide]	significant binding	
HSRIRGRDQGPNVCALQQIL (listed as Mus musculus) [Peptide 2, murine periostin peptide]	significant binding	
IGCEGDSISINGIKMVNKKD (listed as Mus musculus) [Peptide 22, murine periostin peptide]	significant binding	
RGLENNVNVELLNALHSHMV (listed as Mus musculus) [Peptide 10, murine periostin peptide]	significant binding	
TIGGKQLRVFVYRTAICIEN (listed as Mus musculus) [Peptide 30, murine periostin peptide]	significant binding	
B1		bone healing (callus formation, fibula fusion) by X-ray [1]: “rescued” the null phenotype; also recorded: pronounced healing is evident; fold-change in area of migration (primary fibroblasts): highest degree of migration; expression of collagen Ia1 and Ia2 [2]: induces expression of collagen Ia1 and Ia2; cell migration into the scratch area (rat osteoblast cells): highest degree of migration; also recorded: most potent stimulation of migration; collagen deposition by fibroblasts (fibroblasts): increased in a dose-dependent manner
B2		fold-change in area of migration (primary fibroblasts): promoted migration
